The values that follow come from patent US20260257039A1, “CONVECTION-ENHANCED THERMO-CHEMOTHERAPY CATHETER SYSTEM” (Board of Regents, The University of Texas System, priority 2022, published 2026).

SMILES strings stand for the structures.

One data set relates to ex vivo porcine brains. The following applies: contrast agent infusion, literature; cited from earlier work.
The test system of another data set is excised pig brains. As for the experimental part:
The volume of solution that leaked into the ventricles was segmented into a separate mask (green).
In recent studies (see e.g. FIG. 62A-FIG. 62C) E. Y. Elenes et al., Journal of Engineering and Science in Medical Diagnostics and Therapy, 2020), the arborizing catheter, comprising six infusion ports, was compared to a reflux-preventing single-port catheter. Infusions of iohexol at a flow rate of 1 μL/min/microneedle were performed, using the arborizing catheter on one hemisphere and a single-port catheter on the contralateral hemisphere of excised pig brains. The volume dispersed (Va) of the contrast agent was quantified for each catheter using standard techniques (G. P. Mazzara, et al., International Journal of Radiation Oncology Biology Physics, 2004; and M. F. Dempsey, et al., American Journal of Neuroradiology, 2005).

Turning to `CC(=O)N(CC(O)CO)c1c(I)c(C(=O)NCC(O)CO)c(I)c(C(=O)NCC(O)CO)c1I` (centres unmarked) [iohexol], in the data set on ex vivo porcine brains, the “voxels with a concentration between 10 and 15%” value is on record as about 40%. The “Vd, arborizing catheter relative to single-port catheter” value in the data set on excised pig brains is “approximately 6 times”.
